Earlier results on one molecule are cited in US20080286202A1, “Method of Diagnosing Prodromal Forms of Diseases Associated With Amyloid Deposition” (priority 2004, published 2008).

For this series the following is noted: in vivo.

For the molecule `COc1ccccc1N1CCN(CCN(c2ccccn2)[11C](=O)C2CCCCC2)CC1` [[^11C]WAY-100635], the “f1 (free level in plasma)” value is given as 0.06.
